{"source": "patent US20130344595A1", "about": "“CULTURE MEDIA FOR DEVELOPMENTAL CELLS CONTAINING ELEVATED CONCENTRATIONS OF LIPOIC ACID” (Vitrolife Sweden AB, priority 2007, published 2013)", "key": {"[1]": {"system": "CF1 mouse embryos", "test": "Blastocyst development and cell number of mouse embryos cultured with lipoic acid at 20% or 5% O2 (Example 1)", "type": "cell-based", "procedure": "The following procedure was carried out. Lipoic acid was dissolved in ethanol. A 100 mM working solution in 100% EtOH was prepared with appropriate dilutions made to the culture media thereafter (1 μM, 10 μM and 100 μM final concentrations). A vehicle control, equivalent to the dilution of the highest concentration solution (0.1%), was used in all culture experiments. Zygotes were collected from 4-week-old CF1 outbred female mice. Cumulus-enclosed zygotes were collected at 21 h post hCG and denuded with 1 mg/mL hyaluronidase in G-MOPS supplemented with 5 mg/mL human serum albumin. Cultures were incubated at either 5% or 20% O2. After four days of culture, blastocyst development was analyzed and cell number was counted in 200 cultured embryos per treatment.\nThe results are shown in FIGS. 1 (20% O2) and 2 (5% O2). The data are based on 200 embryos cultured per study. […] Furthermore, the beneficial effect of lipoic acid was lost at higher concentrations. […] The data for FIGS. 1 and 2 are presented in Tables 6 and 7, respectively, which also provide the results for the trophectoderm, inner cell mass (ICM) and ICM ratio."}, "[2]": {"system": "CF1 mouse embryos", "test": "Sequential G1/G2 culture of mouse embryos, G1 with or without 10 μM lipoic acid (Example 2)", "type": "cell-based", "details": "low O2", "procedure": "CF1 mouse embryos were grown in either G1 alone or G1 plus 10 μM lipoic acid. After 48 hours, embryos from both treatment groups were moved to G2. All cultures were incubated in low O2. Compaction rates were assessed and blastocyst developmental rates were measured at 71 and 78 hours. Blastocysts were then differentially stained and counted."}, "[3]": {"system": "CF1 mouse zygote", "test": "Effective concentration range of lipoic acid on mouse zygote development at 20% oxygen (Example 3)", "type": "cell-based", "details": "for Day 3 (% compacting) / Day 4 (% Total Blast) / Day 5 (% Hatching) / Day 5 (% Total Blast) / Total Cell Number: 20% oxygen", "description": "The effective range of lipoic acid concentrations to enhance blastocyst development and cell number was established using CF1 mouse embryos."}, "[4]": {"system": "reactive oxygen species (ROS)", "test": "ROS generation in culture medium by UV photo-oxidation, H2DFFDA fluorescent dye (Example 4)", "details": "all concentrations; compared to vehicle group; UV photo-oxidation in GMOPS-Plus", "procedure": "In order to determine whether the lipoic acid is having an antioxidant effect, a series of experiments were performed using the fluorescent dye […] (H2DFFDA), which reacts with reactive oxygen species (ROS) intermediates. 200 μM H2DFFDA in DMSO was added to GMOPS-Plus (available from Vitrolife). Lipoic acid dissolved in EtOH with the final concentration within the media being 0.1% EtOH. Each drop was then photo-oxidized with 4 successive 2.5 minute exposures using UV light to generate ROS.\nAll results are based on comparison to the vehicle group ([…]), which was not significant in comparison to the control group."}, "[5]": {"system": "human embryos", "test": "Human embryo development in G1 medium with 10 μM lipoic acid (Example 5)", "type": "cell-based", "details": "G1 medium with 10 μM lipoic acid versus G1 free of lipoic acid", "procedure": "In accordance with the present invention, the effect of lipoic acid-containing culture media on human embryo development is examined. Good prognosis patients have half of their embryos cultured in G1 culture media free of lipoic acid (i.e., the control), while the other half are cultured in G1 medium containing 10 μM lipoic acid (i.e., the elevated lipoic acid medium)."}, "[6]": {"system": "8-cell hamster embryos", "details": "omission from Ham's F10 medium; cited from earlier work"}, "[7]": {"system": "rabbit morulae", "details": "omission from Ham's F10 medium; cited from earlier work"}, "[8]": {"details": "G1 + 10 μM LA for 48 hours, then G2"}}, "note": "Marks after values point to notes of the source that are not given here.", "data": [{"compound": "O=C(O)CCCC[C@@H]1CCSS1", "note": "(racemic) [lipoic acid]", "values": [{"measurement": "blastocyst cell number", "setting": "[1]; 1 μM lipoic acid, at either 5% or 20% oxygen", "result": "no statistically significant increase in cell number"}, {"measurement": "blastocyst cell number", "setting": "[1]; 10 μM lipoic acid, outbred (CF1) mouse embryos", "result": "significantly higher cell number"}, {"measurement": "blastocyst cell number versus control medium", "setting": "[1]; 100 μM lipoic acid", "result": "significantly lower cell numbers"}, {"measurement": "Day 5 % Blast", "setting": "[1]; lipoic acid 1 μM, 5% O2", "result": 76.15, "unit": "%"}, {"measurement": "ICM", "setting": "[1]; lipoic acid 1 μM, 5% O2", "result": 16.83}, {"measurement": "ICM ratio", "setting": "[1]; lipoic acid 1 μM, 5% O2", "result": 19.71, "unit": "%"}, {"measurement": "total cell #", "setting": "[1]; lipoic acid 1 μM, 5% O2", "result": 85.40}, {"measurement": "trophectoderm", "setting": "[1]; lipoic acid 1 μM, 5% O2", "result": 68.57}, {"measurement": "Day 5 % Blast", "setting": "[1]; lipoic acid 1 μM, 20% O2", "result": 59.18, "unit": "%"}, {"measurement": "ICM", "setting": "[1]; lipoic acid 1 μM, 20% O2", "result": 13.07}, {"measurement": "ICM ratio", "setting": "[1]; lipoic acid 1 μM, 20% O2", "result": 19.12, "unit": "%"}, {"measurement": "total cell #", "setting": "[1]; lipoic acid 1 μM, 20% O2", "result": 68.37}, {"measurement": "trophectoderm", "setting": "[1]; lipoic acid 1 μM, 20% O2", "result": 55.30}, {"measurement": "Day 5 % Blast", "setting": "[1]; lipoic acid 10 μM, 5% O2", "result": 76.74, "unit": "%^#"}, {"measurement": "ICM", "setting": "[1]; lipoic acid 10 μM, 5% O2", "result": "22.49^####"}, {"measurement": "ICM ratio", "setting": "[1]; lipoic acid 10 μM, 5% O2", "result": 22.10, "unit": "%"}, {"measurement": "total cell #", "setting": "[1]; lipoic acid 10 μM, 5% O2", "result": "101.77^###"}, {"measurement": "trophectoderm", "setting": "[1]; lipoic acid 10 μM, 5% O2", "result": "79.28^##"}, {"measurement": "Day 5 % Blast", "setting": "[1]; lipoic acid 10 μM, 20% O2", "result": 61.47, "unit": "%^‡"}, {"measurement": "ICM", "setting": "[1]; lipoic acid 10 μM, 20% O2", "result": "16.4731^‡‡‡‡"}, {"measurement": "ICM ratio", "setting": "[1]; lipoic acid 10 μM, 20% O2", "result": 21.25, "unit": "%"}, {"measurement": "total cell #", "setting": "[1]; lipoic acid 10 μM, 20% O2", "result": "77.527^‡‡‡"}, {"measurement": "trophectoderm", "setting": "[1]; lipoic acid 10 μM, 20% O2", "result": "61.054^‡‡"}, {"measurement": "Day 5 % Blast", "setting": "[1]; lipoic acid 100 μM, 5% O2", "result": 53.13, "unit": "%"}, {"measurement": "ICM", "setting": "[1]; lipoic acid 100 μM, 5% O2", "result": 13.61}, {"measurement": "ICM ratio", "setting": "[1]; lipoic acid 100 μM, 5% O2", "result": 18.33, "unit": "%"}, {"measurement": "total cell #", "setting": "[1]; lipoic acid 100 μM, 5% O2", "result": 74.21}, {"measurement": "trophectoderm", "setting": "[1]; lipoic acid 100 μM, 5% O2", "result": 60.61}, {"measurement": "Day 5 % Blast", "setting": "[1]; lipoic acid 100 μM, 20% O2", "result": 42.57, "unit": "%"}, {"measurement": "ICM", "setting": "[1]; lipoic acid 100 μM, 20% O2", "result": 10.2916}, {"measurement": "ICM ratio", "setting": "[1]; lipoic acid 100 μM, 20% O2", "result": 19.07, "unit": "%"}, {"measurement": "total cell #", "setting": "[1]; lipoic acid 100 μM, 20% O2", "result": 53.9583}, {"measurement": "trophectoderm", "setting": "[1]; lipoic acid 100 μM, 20% O2", "result": 43.6667}, {"measurement": "inner cell mass number and percentage inner cell mass of total", "setting": "[2]; 10 μM lipoic acid added to G1", "result": "increased inner cell mass number and percentage inner cell mass of total"}, {"measurement": "% Expanded on Day 4", "setting": "[2]; [8]", "result": 39.7, "unit": "%"}, {"measurement": "% ICM", "setting": "[2]; [8]", "result": 31, "unit": "%**"}, {"measurement": "Day 3 % a.m.", "setting": "[2]; [8]", "result": 81.0, "unit": "%"}, {"measurement": "Day 4 blast % a.m.", "setting": "[2]; [8]", "result": 22.4, "unit": "%"}, {"measurement": "Day 4 blast % p.m.", "setting": "[2]; [8]", "result": 65.5, "unit": "%"}, {"measurement": "ICM", "setting": "[2]; [8]", "result": "16 ± 1"}, {"measurement": "TE", "setting": "[2]; [8]", "result": "34 ± 2"}, {"measurement": "Total", "setting": "[2]; [8]", "result": "50 ± 2"}, {"measurement": "Day 3 (% compacting)", "setting": "[3]; 5 μM LA", "result": 38.9, "unit": "%"}, {"measurement": "Day 4 (% Total Blast)", "setting": "[3]; 5 μM LA", "result": 51.6, "unit": "%"}, {"measurement": "Day 5 (% Hatching)", "setting": "[3]; 5 μM LA", "result": 40.9, "unit": "%"}, {"measurement": "Day 5 (% Total Blast)", "setting": "[3]; 5 μM LA", "result": 81.8, "unit": "%"}, {"measurement": "Total Cell Number", "setting": "[3]; 5 μM LA", "result": "90.2 ± 4.8"}, {"measurement": "Day 3 (% compacting)", "setting": "[3]; 10 μM LA", "result": 51.4, "unit": "%"}, {"measurement": "Day 4 (% Total Blast)", "setting": "[3]; 10 μM LA", "result": 62.9, "unit": "%"}, {"measurement": "Day 5 (% Hatching)", "setting": "[3]; 10 μM LA", "result": 40.0, "unit": "%"}, {"measurement": "Day 5 (% Total Blast)", "setting": "[3]; 10 μM LA", "result": 92.7, "unit": "%"}, {"measurement": "Total Cell Number", "setting": "[3]; 10 μM LA", "result": "91.3 ± 4.7"}, {"measurement": "Day 3 (% compacting)", "setting": "[3]; 20 μM LA", "result": 26.5, "unit": "%"}, {"measurement": "Day 4 (% Total Blast)", "setting": "[3]; 20 μM LA", "result": 42.9, "unit": "%"}, {"measurement": "Day 5 (% Hatching)", "setting": "[3]; 20 μM LA", "result": 31.3, "unit": "%"}, {"measurement": "Day 5 (% Total Blast)", "setting": "[3]; 20 μM LA", "result": 73.1, "unit": "%"}, {"measurement": "Total Cell Number", "setting": "[3]; 20 μM LA", "result": "94.0 ± 7.2"}, {"measurement": "Day 3 (% compacting)", "setting": "[3]; 40 μM LA", "result": 22.9, "unit": "%"}, {"measurement": "Day 4 (% Total Blast)", "setting": "[3]; 40 μM LA", "result": 37.3, "unit": "%"}, {"measurement": "Day 5 (% Hatching)", "setting": "[3]; 40 μM LA", "result": 28.4, "unit": "%"}, {"measurement": "Day 5 (% Total Blast)", "setting": "[3]; 40 μM LA", "result": 74.6, "unit": "%"}, {"measurement": "Total Cell Number", "setting": "[3]; 40 μM LA", "result": "69.4 ± 5.8"}, {"measurement": "Day 3 (% compacting)", "setting": "[3]; 80 μM LA", "result": 22.9, "unit": "%"}, {"measurement": "Day 4 (% Total Blast)", "setting": "[3]; 80 μM LA", "result": 4.6, "unit": "%"}, {"measurement": "Day 5 (% Hatching)", "setting": "[3]; 80 μM LA", "result": 9.4, "unit": "%"}, {"measurement": "Day 5 (% Total Blast)", "setting": "[3]; 80 μM LA", "result": 29.7, "unit": "%"}, {"measurement": "Total Cell Number", "setting": "[3]; 80 μM LA", "result": 34.0}, {"measurement": "blastocyst development by day 5 and cell number relative to the control", "setting": "[3]; above 5 to 40 μM", "result": "lower blastocyst development by day 5 and lower cell number relative to the control"}, {"measurement": "effect on progression to blastocyst stage, blastocyst cell number and inner cell mass", "setting": "[3]; lipoic acid at less than 5 μM", "result": "little, if any, effect"}, {"measurement": "day 4 blastocyst development and cell numbers", "setting": "[3]; lipoic acid greater than about 40 μM", "result": "lower day 4 blastocyst development and decreased cell numbers"}, {"measurement": "concentration of maximum improvement to embryo development", "setting": "[3]; within the range 5 μM to 40 μM", "result": "approximately 10 μM"}, {"measurement": "generation of ROS within the culture media", "setting": "[4]", "result": "concentration-dependent decrease in the generation of reactive oxygen"}, {"measurement": "human embryo development up to the 8-cell and blastocyst stage", "setting": "[5]", "result": "Embryos develop quicker up to the 8-cell and blastocyst stage"}, {"measurement": "effect of omission of lipoic acid on development of 8-cell hamster embryos", "setting": "[6]", "result": "no significant effect on the development at any stage of culture"}, {"measurement": "effect of omission of lipoic acid on culture of rabbit morulae to expanded blastocysts", "setting": "[7]", "result": "no significant effect"}]}]}
